Results reported in patent publication US20240299542A1, “NATURAL KILLER CELLS ENGINEERED TO REDUCE OR ELIMINATE CBL-B AND USES THEREOF” (City of Hope, priority 2021, published 2024).

What was measured:
perform [1] = assay: Perforin mRNA by qRT-PCR in siRNA-transduced NK cells; assay type: cell-based, human; conditions: without or with IL-15 (10 ng/ml) 16 h, vs Scr siRNA
Protocol: (§1) FIG. 8A Primary human NK cells were transduced with Cbl-b siRNA or a scrambled siRNA (Scr siRNA) for 48 h, directly followed by immunoblot analysis to determine the efficiency of siRNA (n=3 donors). […] FIG. 8B qRT-PCR was performed to quantify the level of perform mRNA (n=7 donors) in Cbl-b siRNA- and Scr siRNA-transduced primary human cells incubated without or with IL-15 (10 ng/ml) for 16 h. FIG. 8C The perform protein level in Cbl-b siRNA- and Scr siRNA-transduced primary human NK cells incubated 24 without or with IL-15 (10 ng/ml) for 24 h was measured by immunoblot analysis. The data are representative of four experiments and are summarized in the right panel. Scr, scrambled; *P<0.05, **P<0.01; ns, not significant. Data are presented as mean±SEM.
Reverse transcription-polymerase chain reaction. Total RNA was isolated from primary NK cells with the RNeasy Mini Kit (Qiagen). Complementary DNA (cDNA) was generated by Moloney murine leukemia virus (M-MLV) reverse transcriptase (Invitrogen) and amplified by qPCR with SYBR Green PCR Master Mix (Applied Biosystems) and gene-specific primers. Relative amplification values were normalized to the amplification of GAPDH or 18S rRNA.
(§2) Both groups were next incubated without or with IL-15 and co-cultured with ^51Cr labeled MV4-11, Molm-13, or EOL-1 leukemia cell lines, followed by assessment of specific lysis measured after 4 h of co-culture.

perform [2] = assay: Perforin protein by immunoblot in siRNA-transduced NK cells; assay type: cell-based, human; conditions: with IL-15 (10 ng/ml) 24 h, vs Scr siRNA
Protocol: as §1
Immunoblotting. Cells were harvested and suspended in RIPA lysis buffer (Thermo Fisher Scientific) on ice for 20 minutes. Equal amount of protein was resolved by 5-15% Criterion TGX gel (Bio-Rad) and then transferred onto a Nitrocellulose (NC) or PVDF membrane (Thermo Fisher Scientific). […] Densitometric analysis was performed to quantify intensity of gel bands with Image J (National Institutes of Health).
as §2

granzyme B = assay: RNA-seq of siRNA-transduced primary human NK cells; assay type: cell-based; conditions: without or with IL-15 (10 ng/ml) 16 h, vs Scr siRNA
Protocol: (§3) FIGS. 4A-4D depict the results of a study showing that downregulation of Cbl-b increases IFN-γ secretion in IL-15-activated primary human NK cells. (FIG. 4A) RNAseq was conducted using primary human NK cells transduced with either Cbl-b siRNA or Scr siRNA without or with incubation in IL-15 (10 ng/ml) for 16 h (4 donors for each group). […] (FIG. 4B) qRT-PCR was performed to quantify the mRNA levels of IFN-γ (n=6 donors) after IL-15 (10 ng/ml) 6 h stimulation. (FIG. 4C) The percentage of intracellular IFN-γ+ cells in un-transduced NK cells or those transduced with Cbl-b siRNA or Scr siRNA, each activated with IL-15 (10 ng/ml) for 24 h (11.5% vs 4.338%; P=0.0008; n=5 donors). (FIG. 4D) Supernatants were collected after IL-15 (10 ng/ml) for 24 h and IFN-γ concentrations measured by ELISA (18115 pg/ml vs 882.5 pg/ml; P=0.0099; n=7 donors). Scr-scrambled; *P<0.05, **P<0.01, ***P<0.001 by Student's two-tailed paired t-test or One-way ANOVA; ns, not significant. Data presented as mean±SEM.
To further explore how Cbl-b regulates the functions of primary human NK cells, we performed RNA-seq analyses using enriched primary NK cells from healthy donors transduced with Cbl-b siRNA or Scr siRNA without or with IL-15 treatment for 16 h (n=4 in each group). […]

IFN-γ = IFN-γ mRNA by qRT-PCR in IL-15-activated siRNA-transduced NK cells; assay type: cell-based, human; conditions: IL-15 (10 ng/ml) 6 h, vs Scr siRNA
Protocol: as §3
Reverse transcription-polymerase chain reaction. Total RNA was isolated from primary NK cells with the RNeasy Mini Kit (Qiagen). Complementary DNA (cDNA) was generated by Moloney murine leukemia virus (M-MLV) reverse transcriptase (Invitrogen) and amplified by qPCR with SYBR Green PCR Master Mix (Applied Biosystems) and gene-specific primers. […]

Mertk = Mertk phosphorylation by immunoblot in siRNA-transduced NK cells; assay type: cell-based, human; conditions: vs Scr siRNA
Protocol: FIGS. 5A-5D depict the results of a study showing that Cbl-b interacts with and regulates phosphorylation of Mertk in primary human NK cells. (FIG. 5A) Representative intracellular flow cytometric analysis of the TAM family receptors expression in primary human NK cells. Summarized data are shown from 6 donors. IgG1 is the isotype for Tyro3 and Axl, while IgG2 for Mertk. (FIG. 5B) The level of Mertk phosphorylation and Cbl-b in Cbl-b siRNA- or Scr siRNA-transduced primary human NK was measured by immunoblot analysis. Data presented are representative of five independent experiments. […] Data presented are representative of 4 donors performed in a similar fashion and are summarized in the panel below the representative flow dot plots. […]
FIGS. 10A-10B depict immunoblotting analysis of the phosphorylation level of Mertk (p-Mertk). (FIG. 10A) The level of Mertk phosphorylation and Cbl-b in Cbl-b siRNA- or Scr siRNA-transduced primary human NK cells was measured by immunoblot analysis. […] (FIG. 10B) The level of total Mertk expression in Cbl-b siRNA- or Scr siRNA-transduced primary human NK was measured by immunoblot analysis.
Immunoblotting. […] Densitometric analysis was performed to quantify intensity of gel bands with Image J (National Institutes of Health). […]

Substance: Cbl-b siRNA: Cbl-b-specific Accell siRNA (Dharmacon), SEQ ID NO:1, CCUUCAUGUUCAGAUGGUU (Accell modified siRNA, pattern not given here)
- perform mRNA (perform [1]): did not reach a statistical significance
- total protein level of perform (perform [2]): significantly increased
- transcriptional level of granzyme B (RNA-seq) (granzyme B): increased
- IFN-γ mRNA (IFN-γ): increased dramatically
- phosphorylation level of Mertk (p-Mertk) (Mertk): significantly increased
